PubChem BioAssay (NCI)
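GI50 marks 50% less growth. TGI: total growth inhibition.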

Key:
Assay in all cases: DTP human tumour cell line panel, 384-well format
OVCAR-3 ovarian = tested on: OVCAR-3 ovarian
NCI-H460 NSCLC = tested on: NCI-H460 NSCLC
NCI-H226 lung = tested on: NCI-H226 lung
HS 578T breast = tested on: HS 578T breast
KM12 colon = tested on: KM12 colon
SNB-19 CNS = tested on: SNB-19 CNS
786-0 renal = tested on: 786-0 renal
TK-10 renal = tested on: TK-10 renal
SK-OV-3 ovarian = tested on: SK-OV-3 ovarian
UO-31 renal = tested on: UO-31 renal
MDA-MB-231 breast = tested on: MDA-MB-231 breast
MOLT-4 leukemia = tested on: MOLT-4 leukemia
HCT-116 colon = tested on: HCT-116 colon
T-47D breast = tested on: T-47D breast
OVCAR-5 ovarian = tested on: OVCAR-5 ovarian
SK-MEL-5 melanoma = tested on: SK-MEL-5 melanoma
SF-539 CNS = tested on: SF-539 CNS
BT-549 breast = tested on: BT-549 breast
SW-620 colon = tested on: SW-620 colon
OVCAR-4 ovarian = tested on: OVCAR-4 ovarian
U251 glioblastoma = tested on: U251 glioblastoma
M14 melanoma = tested on: M14 melanoma
LOX IMVI melanoma = tested on: LOX IMVI melanoma
EKVX NSCLC = tested on: EKVX NSCLC
MCF7 breast = tested on: MCF7 breast
SF-295 CNS = tested on: SF-295 CNS
A549 NSCLC = tested on: A549 NSCLC
NCI-H23 lung = tested on: NCI-H23 lung
HCC-2998 colon = tested on: HCC-2998 colon
UACC-257 melanoma = tested on: UACC-257 melanoma
SF-268 CNS = tested on: SF-268 CNS
MALME-3M melanoma = tested on: MALME-3M melanoma
MDA-MB-468 breast = tested on: MDA-MB-468 breast
SR leukemia = tested on: SR leukemia
DU-145 prostate = tested on: DU-145 prostate
MDA-MB-435 melanoma = tested on: MDA-MB-435 melanoma
ACHN renal = tested on: ACHN renal
NCI-H322M lung = tested on: NCI-H322M lung
HOP-62 NSCLC = tested on: HOP-62 NSCLC
HOP-92 NSCLC = tested on: HOP-92 NSCLC
HCT-15 colon = tested on: HCT-15 colon
IGROV1 ovarian = tested on: IGROV1 ovarian
SNB-75 CNS = tested on: SNB-75 CNS
SK-MEL-28 melanoma = tested on: SK-MEL-28 melanoma
PC-3 prostate = tested on: PC-3 prostate
RPMI-8226 leukemia = tested on: RPMI-8226 leukemia
CCRF-CEM leukemia = tested on: CCRF-CEM leukemia
HL-60(TB) leukemia = tested on: HL-60(TB) leukemia
A498 renal = tested on: A498 renal
OVCAR-8 ovarian = tested on: OVCAR-8 ovarian
UACC-62 melanoma = tested on: UACC-62 melanoma
NCI/ADR-RES ovarian = tested on: NCI/ADR-RES ovarian
SN12C renal = tested on: SN12C renal
RXF 393 renal = tested on: RXF 393 renal
CAKI-1 renal = tested on: CAKI-1 renal
HT29 colon = tested on: HT29 colon
COLO 205 colon = tested on: COLO 205 colon
NCI-H522 lung = tested on: NCI-H522 lung

## CC#CC(=O)N1CCC[C@H]1c1nc(-c2ccc(C(=O)Nc3ccccn3)cc2)c2c(N)nccn12
OVCAR-3 ovarian
  GI50: 44.8 µM
  TGI: > 100 µM
NCI-H460 NSCLC
  GI50: 71.8 µM
  TGI: > 100 µM
NCI-H226 lung
  GI50: 41.6 µM
  TGI: 98.4 µM
HS 578T breast
  GI50: 44.9 µM
  TGI: > 100 µM
KM12 colon
  GI50: > 100 µM
  TGI: > 100 µM
SNB-19 CNS
  GI50: > 100 µM
  TGI: > 100 µM
786-0 renal
  GI50: > 74.8 µM
  TGI: > 100 µM
TK-10 renal
  GI50: 57.2 µM
  TGI: > 100 µM
SK-OV-3 ovarian
  GI50: 71.4 µM
  TGI: > 100 µM
UO-31 renal
  GI50: > 95.6 µM
  TGI: > 100 µM
MDA-MB-231 breast
  GI50: 38.3 µM
  TGI: > 100 µM
MOLT-4 leukemia
  GI50: 18.8 µM
  TGI: 36.1 µM
HCT-116 colon
  GI50: 47.9 µM
  TGI: > 100 µM
T-47D breast
  GI50: 40.1 µM
  TGI: > 100 µM
OVCAR-5 ovarian
  GI50: > 100 µM
  TGI: > 100 µM
SK-MEL-5 melanoma
  GI50: 60.5 µM
  TGI: > 100 µM
SF-539 CNS
  GI50: > 100 µM
  TGI: > 100 µM
BT-549 breast
  GI50: 27.9 µM
  TGI: > 91.9 µM
SW-620 colon
  GI50: > 100 µM
  TGI: > 100 µM
OVCAR-4 ovarian
  GI50: > 100 µM
  TGI: > 100 µM
U251 glioblastoma
  GI50: > 100 µM
  TGI: > 100 µM
M14 melanoma
  GI50: 74.8 µM
  TGI: > 100 µM
LOX IMVI melanoma
  GI50: > 89.2 µM
  TGI: > 100 µM
EKVX NSCLC
  GI50: 73.1 µM
  TGI: > 100 µM
MCF7 breast
  GI50: 50.9 µM
  TGI: > 100 µM
SF-295 CNS
  GI50: > 100 µM
  TGI: > 100 µM
A549 NSCLC
  GI50: 51.9 µM
  TGI: > 100 µM
NCI-H23 lung
  GI50: > 100 µM
  TGI: > 100 µM
HCC-2998 colon
  GI50: > 100 µM
  TGI: > 100 µM
UACC-257 melanoma
  GI50: 67.7 µM
  TGI: > 100 µM
SF-268 CNS
  GI50: > 86.4 µM
  TGI: > 100 µM
MALME-3M melanoma
  GI50: > 58.9 µM
  TGI: > 100 µM
MDA-MB-468 breast
  GI50: 15.5 µM
  TGI: 40.7 µM
SR leukemia
  GI50: 15.2 µM
  TGI: 42.1 µM
DU-145 prostate
  GI50: 82 µM
  TGI: > 100 µM
MDA-MB-435 melanoma
  GI50: > 100 µM
  TGI: > 100 µM
ACHN renal
  GI50: > 73.2 µM
  TGI: > 100 µM
NCI-H322M lung
  GI50: 31.6 µM
  TGI: > 88.3 µM
HOP-62 NSCLC
  GI50: 42 µM
  TGI: > 100 µM
HOP-92 NSCLC
  GI50: 68.8 µM
  TGI: > 100 µM
HCT-15 colon
  GI50: > 76.2 µM
  TGI: > 100 µM
IGROV1 ovarian
  GI50: 20 µM
  TGI: 64.3 µM
SNB-75 CNS
  GI50: 29.7 µM
  TGI: > 83 µM
SK-MEL-28 melanoma
  GI50: > 100 µM
  TGI: > 100 µM
PC-3 prostate
  GI50: > 100 µM
  TGI: > 100 µM
RPMI-8226 leukemia
  GI50: 48.5 µM
  TGI: > 100 µM
CCRF-CEM leukemia
  GI50: 85.3 µM
  TGI: > 100 µM
HL-60(TB) leukemia
  GI50: > 100 µM
  TGI: > 100 µM
A498 renal
  GI50: 59.6 µM
  TGI: > 100 µM
OVCAR-8 ovarian
  GI50: > 90 µM
  TGI: > 100 µM
UACC-62 melanoma
  GI50: 39.9 µM
  TGI: > 100 µM
NCI/ADR-RES ovarian
  GI50: > 100 µM
  TGI: > 100 µM
SN12C renal
  GI50: 98 µM
  TGI: > 100 µM
RXF 393 renal
  GI50: 14.2 µM
  TGI: > 60.9 µM
CAKI-1 renal
  GI50: 57.7 µM
  TGI: > 100 µM
HT29 colon
  GI50: 84.8 µM
  TGI: > 100 µM
COLO 205 colon
  GI50: > 100 µM
  TGI: > 100 µM
NCI-H522 lung
  GI50: 5.87 µM
  TGI: > 80.8 µM
